Measured values from ChEMBL document CHEMBL1152090, “Engineering of cyclic peptides with novel inhibiting properties to differentiate two serine proteases, chymotrypsin and subtilisin Carlsberg” (Bioorg Med Chem Lett, 1994).
One block for each compound: values may come before it.

How the values were obtained:
[1] = biological target: T1, Chymotrypsinogen A (Bos taurus, UniProt P00766); assay: Compound was tested for the inhibition of chymotrypsin at 69 nM
[2] = Compound was tested for the inhibition of subtilisin carlsberg at 23 nM
[3] = Compound was tested for the inhibition of subtilisin carlsberg at 138 nM
[4] = biological target: T1, Chymotrypsinogen A; assay: Compound was tested for the inhibition of chymotrypsin at 138 nM
[5] = biological target: Chymotrypsinogen A (Bos taurus) (UniProt P00766); conditions: 276 nM
[6] = biological target: Chymotrypsinogen A (Bos taurus) (UniProt P00766); conditions: 120 nM
[7] = biological target: T1, Chymotrypsinogen A; assay: Compound was tested for the inhibition of chymotrypsin at 276 nM
[8] = Compound was tested for the inhibition of subtilisin carlsberg at 690 nM
[9] = biological target: T1, Chymotrypsinogen A; assay: Compound was tested for the inhibition of chymotrypsin at 120 nM
[10] = Compound was tested for the inhibition of subtilisin carlsberg at 300 nM
[11] = tested on: CC[C@H](C)[C@@H]1NC(=O)[C@@H](CCCN=C(N)N)NC(=O)[C@H](Cc2ccc(O)cc2)NC(=O)[C@@H](CCC(=O)O)NC(=O)[C@H](CCSC)NC(=O)[C@@H]([C@@H](C)O)NC(=O)[C@H](N)CCC(=O)NCCCC[C@H](C(N)=O)NC(=O)[C@@H](C(C)C)NC(=O)[C@H](CCCN=C(N)N)NC(=O)[C@@H](CCC(=O)O)NC1=O; conditions: 276 nM
[12] = tested on: CC[C@H](C)[C@@H]1NC(=O)[C@@H](CCCN=C(N)N)NC(=O)[C@H](Cc2ccc(O)cc2)NC(=O)[C@@H](CCC(=O)O)NC(=O)[C@H](CCSC)NC(=O)[C@@H]([C@@H](C)O)NC(=O)[C@H](N)CCC(=O)NCCCC[C@H](C(N)=O)NC(=O)[C@@H](C(C)C)NC(=O)[C@H](CCCN=C(N)N)NC(=O)[C@@H](CCC(=O)O)NC1=O; conditions: 120 nM
[13] = tested on: CC[C@H](C)[C@@H]1NC(=O)[C@@H](CCCN=C(N)N)NC(=O)[C@H](Cc2ccc(O)cc2)NC(=O)[C@@H](CCC(=O)O)NC(=O)[C@H](CCSC)NC(=O)[C@@H]([C@@H](C)O)NC(=O)[C@H](N)CCC(=O)NCCCC[C@H](C(N)=O)NC(=O)[C@@H](C(C)C)NC(=O)[C@H](CCCN=C(N)N)NC(=O)[C@@H](CCC(=O)O)NC1=O; conditions: 120 nM; remark: listed apart in the source
[14] = tested on: CC[C@H](C)[C@@H]1NC(=O)[C@@H](CCCN=C(N)N)NC(=O)[C@H](Cc2ccc(O)cc2)NC(=O)[C@@H](CCC(=O)O)NC(=O)[C@H](CCSC)NC(=O)[C@@H]([C@@H](C)O)NC(=O)[C@H](N)CCC(=O)NCCCC[C@H](C(N)=O)NC(=O)[C@@H](C(C)C)NC(=O)[C@H](CCCN=C(N)N)NC(=O)[C@@H](CCC(=O)O)NC1=O; conditions: 276 nM; remark: listed apart in the source

Ki [1]: 203 nM | Ki [2]: 128 nM | Ki [3]: 116 nM | Ki [4]: 191 nM
Compound: CC[C@H](C)[C@@H]1NC(=O)[C@@H](NC(C)=O)CC(=O)/N=C(/N)NCCC[C@@H](C(N)=O)NC(=O)[C@H](Cc2ccc(O)cc2)NC(=O)[C@H](CCC(=O)O)NC(=O)[C@H](CCSC)NC(=O)[C@H]([C@@H](C)O)NC(=O)[C@H](C(C)C)NC1=O

k cat [5]: 45.8 s⁻¹ | k cat [6]: 55.1 s⁻¹
Compound: CC[C@H](C)[C@@H]1NC(=O)[C@@H](CCCN=C(N)N)NC(=O)[C@H](Cc2ccc(O)cc2)NC(=O)[C@@H](CCC(=O)O)NC(=O)[C@H](CCSC)NC(=O)[C@@H]([C@@H](C)O)NC(=O)[C@H](N)CCC(=O)NCCCC[C@H](C(N)=O)NC(=O)[C@@H](C(C)C)NC(=O)[C@H](CCCN=C(N)N)NC(=O)[C@@H](CCC(=O)O)NC1=O

Ki [7]: 656 nM | Ki [8]: 786 nM | Ki [9]: 668 nM | Ki [10]: 775 nM
Compound: CC[C@H](C)[C@@H]1NC(=O)[C@H](CCCNC(=N)N)NC(=O)[C@H](Cc2ccc(O)cc2)NC(=O)[C@H](CCC(=O)O)NC(=O)[C@H](CCSC)NC(=O)[C@H]([C@@H](C)O)NC(=O)[C@@H](N)CCC(=O)NCCCC[C@@H](C(N)=O)NC(=O)[C@H](C(C)C)NC(=O)[C@H](CCCNC(=N)N)NC(=O)[C@H](CCC(=O)O)NC1=O

Compound: Chymotrypsinogen A (Bos taurus) (from UniProt P00766)
Vmax [11]: 3.23e-07 M⁻¹ s⁻¹ | Vmax [12]: 3.89e-07 M⁻¹ s⁻¹ | Km [13]: 310 µM | Km [14]: 298 µM
